In data set [1] the target is Procathepsin L (Homo sapiens, UniProt P07711).
Description: Inhibition of human Cat L
The target in data set [2] is Cathepsin B (Homo sapiens, UniProt P07858).
Description: Inhibition of human Cat B in HepG2 cells
The target in data set [3] is Cathepsin S (Homo sapiens, UniProt P25774). As to the kind of experiment: Inhibition of human Cat S expressed in Ramos cells. It is filed as cell-based.
Data set [4] addresses T1, Cathepsin K (Homo sapiens, UniProt P43235).
T1 sequence (P43235 whole entry): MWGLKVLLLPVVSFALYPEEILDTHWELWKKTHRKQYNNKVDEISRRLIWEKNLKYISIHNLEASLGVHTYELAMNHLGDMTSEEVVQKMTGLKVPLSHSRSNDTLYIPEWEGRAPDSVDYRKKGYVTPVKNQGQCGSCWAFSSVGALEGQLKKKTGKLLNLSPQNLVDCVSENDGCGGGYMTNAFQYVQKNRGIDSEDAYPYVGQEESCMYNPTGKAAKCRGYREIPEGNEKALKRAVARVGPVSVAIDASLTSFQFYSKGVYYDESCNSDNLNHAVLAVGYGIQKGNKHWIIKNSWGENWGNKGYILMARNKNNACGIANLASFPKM
Put plainly: Inhibition of human Cat K expressed in Ramos cells. It is filed as cell-based.

Data set [5] deals with T2, Cathepsin L2 (Homo sapiens, UniProt O60911).
T2 sequence (O60911 whole entry): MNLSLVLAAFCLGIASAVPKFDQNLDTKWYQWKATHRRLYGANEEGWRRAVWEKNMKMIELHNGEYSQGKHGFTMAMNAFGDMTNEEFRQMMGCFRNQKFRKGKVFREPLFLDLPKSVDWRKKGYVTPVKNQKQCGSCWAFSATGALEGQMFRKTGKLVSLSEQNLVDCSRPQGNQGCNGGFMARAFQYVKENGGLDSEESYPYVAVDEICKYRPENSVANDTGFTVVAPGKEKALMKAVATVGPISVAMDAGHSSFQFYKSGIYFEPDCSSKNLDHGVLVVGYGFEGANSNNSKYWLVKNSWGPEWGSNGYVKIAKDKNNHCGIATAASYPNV
As to the kind of experiment: Inhibition of human Cat V.

Data set [6] in a line: Oral bioavailability in rat. It is filed as ADME, organism-based. As to conditions: in vivo.
The nature of data set [7]: Oral bioavailability in dog. The class given is ADME, organism-based, Canis lupus familiaris. The following applies: in vivo.
Data set [8] is described as follows: Half life in rat. The class given is ADME, organism-based. The following applies: in vivo.
Data set [9] can be described thus: Half life in dog. It is filed as ADME, organism-based, Canis lupus familiaris. The following applies: in vivo.
The target of data set [10] is Cruzipain (Trypanosoma cruzi, UniProt P25779).
Cruzipain, sequence (P25779 whole entry): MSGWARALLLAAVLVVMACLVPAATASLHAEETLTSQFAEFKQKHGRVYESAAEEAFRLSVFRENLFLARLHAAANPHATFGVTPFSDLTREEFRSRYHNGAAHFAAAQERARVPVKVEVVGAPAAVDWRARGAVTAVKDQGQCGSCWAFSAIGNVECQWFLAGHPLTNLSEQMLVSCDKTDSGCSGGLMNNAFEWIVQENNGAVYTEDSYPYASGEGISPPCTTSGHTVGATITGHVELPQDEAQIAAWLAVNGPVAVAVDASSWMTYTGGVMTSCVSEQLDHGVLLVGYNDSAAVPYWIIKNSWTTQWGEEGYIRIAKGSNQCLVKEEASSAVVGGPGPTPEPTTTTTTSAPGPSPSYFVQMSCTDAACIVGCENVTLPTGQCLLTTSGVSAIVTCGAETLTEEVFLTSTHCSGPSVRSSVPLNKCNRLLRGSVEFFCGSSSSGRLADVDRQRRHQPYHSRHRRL
Description: Inhibition of Trypanosoma cruzi Cruzipain
The test system of data set [11] is Trypanosoma cruzi. Put plainly: Antimicrobial activity against Trypanosoma cruzi infected in mouse assessed as reduction in parasitemia. The class given is functional, organism-based.
The species entered for data set [12] is Mus musculus. As to the kind of experiment: Toxicity in Trypanosoma cruzi infected mouse. The class given is organism-based. As to conditions: in vivo.
Data set [13] is described as follows: Half life in mouse. The class given is ADME, organism-based. As to conditions: in vivo.

Active and inactive are the calls of the source. No cut-off for these calls is given here.

In general, IC50 refers to the concentration at which inhibition is half-maximal. For orientation: bioavailability means the share of a dose that reaches the circulation, judged against a reference dose that is usually intravenous. A high value points to much systemic uptake. In general, half-life refers to the time in which the quantity being followed falls by half. A high value points to slow decline.

Procathepsin L, sequence (P07711 whole entry): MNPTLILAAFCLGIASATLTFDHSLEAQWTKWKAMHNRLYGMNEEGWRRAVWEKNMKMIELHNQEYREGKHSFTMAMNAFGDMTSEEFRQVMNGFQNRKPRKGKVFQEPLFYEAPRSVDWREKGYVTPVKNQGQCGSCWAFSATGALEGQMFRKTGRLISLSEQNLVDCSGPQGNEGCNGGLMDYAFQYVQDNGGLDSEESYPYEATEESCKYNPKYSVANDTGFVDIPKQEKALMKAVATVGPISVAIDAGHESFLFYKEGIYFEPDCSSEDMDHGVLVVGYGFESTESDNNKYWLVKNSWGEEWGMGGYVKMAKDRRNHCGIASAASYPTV
Cathepsin S, sequence (P25774 whole entry): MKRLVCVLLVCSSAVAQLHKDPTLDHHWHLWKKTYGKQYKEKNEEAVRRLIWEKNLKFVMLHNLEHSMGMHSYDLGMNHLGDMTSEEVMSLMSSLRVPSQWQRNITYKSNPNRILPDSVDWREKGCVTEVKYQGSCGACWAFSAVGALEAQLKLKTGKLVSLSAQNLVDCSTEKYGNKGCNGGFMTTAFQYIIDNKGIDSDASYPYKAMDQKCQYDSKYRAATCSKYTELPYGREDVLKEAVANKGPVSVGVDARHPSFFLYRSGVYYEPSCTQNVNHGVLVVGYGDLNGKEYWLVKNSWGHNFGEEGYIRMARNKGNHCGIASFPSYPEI

The compound `CC(C)(F)C[C@H](N[C@@H](c1ccc(-c2ccc(-c3ccncc3)cc2)cc1)C(F)(F)F)C(=O)N[C@H](C#N)Cc1ccccc1` yielded an IC50 in data set [1] of 436 nM.

For `CC(C)(F)C[C@H](N[C@@H](c1ccc(-c2ccc(C3(C(N)=O)CC3)cc2)cc1)C(F)(F)F)C(=O)N[C@H](C#N)Cc1ccccc1`, the IC50 in data set [2] turned out to be 27 nM; in data set [1], 426 nM.

`CC(C)[C@H](N[C@@H](c1ccc(-c2ccc([C@@H](O)C(F)F)cc2)cc1)C(F)(F)F)C(=O)N[C@H](C#N)Cc1ccc(C#N)cc1F`: the IC50 in [3] worked out at 322 nM; in data set [4], 2 nM; in [5] it was 69 nM; in [2], 87 nM; in [1], 1060 nM. Further, the bioavailability in data set [6] was determined as 20%; in data set [7] it was 30%. Also, the half-life in data set [8] was 312 min; in [9], 276 min.

With `CC(C)C[C@H](N[C@@H](c1ccc(-c2ccc(S(C)(=O)=O)cc2)cc1)C(F)(F)F)C(=O)N[C@H](C#N)Cc1ccccc1`, the IC50 in data set [10] amounted to 0.2 nM; in data set [2] it was 163 nM; in [1], 117 nM.

`CS(=O)(=O)c1ccc(-c2ccc([C@H](N[C@@H](Cc3ccccc3)C(=O)N[C@H](C#N)Cc3ccccc3)C(F)(F)F)cc2)cc1`: the IC50 in data set [10] was determined as 7 nM; in data set [2], 577 nM; in data set [1], 458 nM.

`CC(C)[C@H](N[C@@H](c1ccc(-c2ccc(S(C)(=O)=O)cc2)cc1)C(F)(F)F)C(=O)N[C@H](C#N)Cc1ccc(C#N)cc1F`: the IC50 in [3] worked out at 169 nM; in data set [4], 0.9 nM; in data set [5] it was 28 nM; in data set [2], 143 nM; in data set [1] it was 121 nM.

For `CC(C)[C@H](N[C@@H](c1ccc(-c2ccc(S(C)(=O)=O)cc2)cc1)C(F)(F)F)C(=O)N[C@H](C#N)Cc1ccccc1`, the figures for the IC50 in [2] and in data set [1] were 433 nM and 631 nM, respectively.

With `CC(C)(F)C[C@H](N[C@@H](c1ccc(-c2ccc(S(C)(=O)=O)cc2)cc1)C(F)(F)F)C(=O)N[C@H](C#N)CCc1ccccc1`, the IC50 is 510 nM in data set [10], 397 nM in data set [2] and over 10000 nM in data set [1].

As for `CC(C)(C)[C@H](N[C@@H](c1ccc(-c2ccc(S(C)(=O)=O)cc2)cc1)C(F)(F)F)C(=O)N[C@H](C#N)Cc1ccccc1`, the IC50 is 380 nM in data set [10], over 10000 nM in data set [2] and over 10000 nM in [1].

In the case of `CC(C)(F)C[C@H](N[C@@H](c1ccc(-c2ccc(S(C)(=O)=O)cc2)cc1)C(F)(F)F)C(=O)N[C@H](C#N)Cc1ccc(C#N)cc1F`, the IC50 in data set [2] was 9 nM; in [1], 49 nM.

`CC(C)C[C@H](N[C@@H](c1ccc(-c2ccc(N3CCNCC3)cc2)cc1)C(F)(F)F)C(=O)NCC#N`: the outcome in [11] was Active. Also, the Activity entry in data set [12] is reported as “Non-toxic”. The same compound had a half-inhibitory concentration (IC50) in data set [10] of 1.8 nM.

On to `CC(C)(F)C[C@H](N[C@@H](c1ccc(-c2ccc(C3(C(=O)N4CCOCC4)CC3)cc2)cc1)C(F)(F)F)C(=O)N[C@H](C#N)Cc1ccccc1`, for which the values for the IC50 in data set [2] and in [1] were 64 nM and 1080 nM, respectively.

In the case of `CS(=O)(=O)c1ccc(-c2ccc([C@H](N[C@@H](CC3CC3)C(=O)N[C@H](C#N)Cc3ccccc3)C(F)(F)F)cc2)cc1`, the IC50 in [2] came out at 231 nM; in data set [1], 5250 nM.

On to `CC(C)(F)C[C@H](N[C@@H](c1ccc(-c2ccc(S(C)(=O)=O)cc2)cc1)C(F)(F)F)C(=O)N[C@H](C#N)CC(F)(F)F`, for which the results for the IC50 in data set [10] and in data set [1] were 130 nM and 2630 nM, respectively.

As to `CC(C)(F)C[C@H](N[C@@H](c1ccc(-c2ccc(S(C)(=O)=O)cc2)cc1)C(F)(F)F)C(=O)N[C@H](C#N)C1(c2ccccc2)CC1`, the IC50 in data set [10], in data set [2] and in [1] was over 10000 nM in each case.

As for `CC(C)(F)C[C@H](N[C@@H](c1ccc(-c2ccc(S(C)(=O)=O)cc2)cc1)C(F)(F)F)C(=O)N[C@H](C#N)Cc1ccncc1`, the results for the IC50 in data set [2] and in data set [1] were 79 nM and 219 nM, respectively.

In turn, `CC(C)(F)C[C@H](N[C@@H](c1ccc(-c2ccc(S(C)(=O)=O)cc2)cc1)C(F)(F)F)C(=O)N[C@H](C#N)Cc1ccccc1` had a half-life in [13] of under 30 min. For the same compound, the IC50 in [2] turned out to be 122 nM; in data set [1], 966 nM.

Consider `CC(C)[C@H](N[C@@H](c1ccc(-c2ccc(C3(C(N)=O)CC3)cc2)cc1)C(F)(F)F)C(=O)N[C@H](C#N)Cc1ccc(C#N)cc1F`, for which the IC50 in [3] was found to be 408 nM; in [4] it was 3 nM; in data set [5], 79 nM; in [2], 41 nM; in [1], 98 nM.

In the case of `CS(=O)(=O)c1ccc(-c2ccc([C@H](N[C@H](C(=O)N[C@H](C#N)Cc3ccccc3)C3CC3)C(F)(F)F)cc2)cc1`, the IC50 in data set [10] worked out at 7 nM; in [2] it was 68 nM; in data set [1], 751 nM.

On to `CC(C)(F)C[C@H](N[C@@H](c1ccc(-c2ccc([C@@H](O)C(F)F)cc2)cc1)C(F)(F)F)C(=O)N[C@H](C#N)Cc1ccccc1`, for which the figures for the IC50 in data set [2] and in data set [1] were 48 nM and 1090 nM, respectively.

`CS(=O)(=O)c1ccc(-c2ccc([C@H](N[C@@H](CC(Cl)Cl)C(=O)N[C@H](C#N)Cc3ccccc3)C(F)(F)F)cc2)cc1`: the IC50 in data set [2] was 383 nM; in data set [1] it was 42 nM.

Regarding `CC(C)(F)C[C@H](N[C@@H](c1ccc(-c2ccc(S(C)(=O)=O)cc2)cc1)C(F)(F)F)C(=O)N[C@@H](C#N)Cc1ccc(C#N)cc1F`, the figures for the IC50 in data set [2] and in [1] were 260 nM and 711 nM, respectively.

Consider `CC(C)(F)C[C@H](N[C@@H](c1ccc(-c2cn[nH]c2)cc1)C(F)(F)F)C(=O)N[C@H](C#N)Cc1ccccc1`, for which the IC50 in data set [10] is 33 nM; in data set [2] it was 59 nM; in [1], 379 nM.
